Laboratory results from US12246071B2, “Brain-penetrating ligand and drug carrier” (priority 2018, dated 2025).

Legend:
[1] = Organ distribution of fluorescently labeled Lac-HP-β-CyD after intravenous injection (IVIS); assay type: in vivo, BALB/c mouse; conditions: HiLyte-labeled, 10 mg/kg intravenous, BALB/c mice, 10 minutes
Protocol: BALB/c mice (8 weeks old, male, 20 g) were intravenously injected with HiLyte-HP-β-CyD (DS4.4) or HiLyte-Lac-HP-β-CyD (DSL3.0) at a dose of 10 mg/kg. After 10 minutes, the mice were euthanized, perfused with PBS and each organ was collected. Each organ was observed by IVIS.

SH-SY5Y cells [2] = assay: Uptake into SH-SY5Y cells after permeation of the hCMEC/D3 monolayer; assay type: cell-based, human; conditions: HiLyte-labeled, 1 mM on upper side, 60 minutes
Protocol: hCMEC/D3 cells were seeded in the upper component of a transwell at 2.0×10^5 cells/well, incubated at 37° C. for 5 days, then, the transepithelial electrical resistance (TEER) was measured. SH-SY5Y cells were seeded at 1.0×10^5 cells/well in a 6-well plate, which is a lower component, and incubated at 37° C. for 1 day. […] Over time (upper side 0, 60 minutes; lower side 0, 5, 15, 30, and 60 minutes), the medium was sampled, the fluorescence intensity was measured using I-control (M1000) (TECAN), and the permeation amount was measured. Similar to Example 4, the permeation coefficient Papp (cm/sec) was calculated as follows.

hCMEC/D3 cells = assay: Uptake of HiLyte-labeled Lac-HP-β-CyD into brain capillary endothelial cells (confocal microscope); assay type: cell-based, human; conditions: 1 mM, 1 hour, 37° C.
Protocol: Lac-HP-β-CyD (DSL3.0) and the control HP-β-CyD […] were labeled with HiLyte fluorescent dye according to the manufacturer's manual. The following experiments were carried out using these.
Using hCMEC/D3 cells, which are human brain capillary endothelial cells, the uptake of Lac-HP-β-CyD into cells was confirmed. hCMEC/D3 cells were seeded at 1.0×10^4 cells/glass dish and incubated at 37° C. for 24 hours. Then, it was washed with PBS, and 150 μL of a medium containing HiLyte-HP-β-CyD (DS4.4, 1 mM) or HiLyte-Lac-HP-β-CyD (DSL3.0, 1 mM) was added, and incubated at 37° C. for 1 hour. After washing with PBS, it was fixed with 4% paraformaldehyde.

SH-SY5Y cells [3] = assay: Cholesterol leakage from U18666A-treated cells; assay type: cell-based, human; conditions: 1.0, 10.0 and 20.0 mM, 2 hours, 37° C., after U18666A 7.5 μM
Protocol: SH-SY5Y cells (1.0×10^5 cells), which are human neuroblasts, were seeded in a 24-well plate, incubated at 37° C. for 24 hours, then, washed with PBS, and a medium supplemented with U18666A (7.5 μM) was added, and it was incubated for an additional 24 hours. Then, washed with PBS, and 150 μL of a medium (HBSS, FBS (−)) containing HP-3-CyD (DS4.4) (1.0, 10.0 and 20.0 mM) or Lac-HP-β-CyD (DSL3.0) (1.0, 10.0 and 20.0 mM) was added. After incubating at 37° C. for 2 hours, the supernatant was collected and centrifuged (10,000). The cholesterol concentration and phospholipid concentration in the obtained supernatant were measured with cholesterol E-Test wako and phospholipid C-Test wako.

SH-SY5Y cells [4] = assay: Intracellular accumulation of amyloid β; assay type: cell-based, human; conditions: 1 mM, 24 hours, after U18666A 7.5 μM and HiLyte488-Aβ 250 nM
Protocol: Using SH-SY5Y cells, the amyloid β accumulation in the cells was measured. SH-SY5Y cells were seeded at 1.0×10^4 cells/glass dish and incubated at 37° C. for 24 hours. Then, washed with PBS, 150 μL of a medium containing U18666A (7.5 μM) and HiLyte488-Aβ (purchased from AnaSpec) (250 nM) was added and incubated at 37° C. for 24 hours. After washing with PBS, 200 μL of a medium containing HP-β-CyD (DS4.4.1 mM) or Lac-HP-β-CyD (DSL3.0, 1 mM) was added, and the mixture was incubated at 37° C. for 24 hours. After washing with PBS, 200 μL of a medium supplemented with Lysostacker (registered trademark) (final concentration: 100 nM) was added. After incubating for 30 minutes, it was fixed with 4% paraformaldehyde and the FIlipin solution was added.

cholesterol leakage into supernatant (SH-SY5Y cells [3]): less cholesterol leakage than HP-β-CyD
Substance: lactose-modified hydroxypropyl-β-cyclodextrin [Lac-HP-β-CyD]
penetration to the brain (fluorescence intensity of organ) [1]: significantly penetrated to the brain as compared with HP-β-CyD
uptake into SH-SY5Y cells after BBB permeation (SH-SY5Y cells [2]): significantly taken up into SH-SY5Y cells after BBB permeation as compared with HP-β-CyD
uptake into cells (hCMEC/D3 cells): significantly taken up into the cells as compared with HP-β-CyD
Aβ clearance / intracellular amyloid β accumulation (SH-SY5Y cells [4]): normalized the Aβ clearance by reducing the amount of cholesterol in cells
